“Also recorded” adds a separate entry of the source.
Key:
mouse INPP5K = biological target: T1, mouse INPP5K (Mus musculus, UniProt Q8C5L6); assay: Inorganic phosphate detection assay for phosphatase inhibition; assay type: biochemical
T1 construct: mouse INPP5K (aa 1–468, UniProt ID: Q8C5L6); FLAG (N); made in house; host or cells: Expi293 cells (pcDNA3.4, transient)
T1 sequence (Q8C5L6 1-468): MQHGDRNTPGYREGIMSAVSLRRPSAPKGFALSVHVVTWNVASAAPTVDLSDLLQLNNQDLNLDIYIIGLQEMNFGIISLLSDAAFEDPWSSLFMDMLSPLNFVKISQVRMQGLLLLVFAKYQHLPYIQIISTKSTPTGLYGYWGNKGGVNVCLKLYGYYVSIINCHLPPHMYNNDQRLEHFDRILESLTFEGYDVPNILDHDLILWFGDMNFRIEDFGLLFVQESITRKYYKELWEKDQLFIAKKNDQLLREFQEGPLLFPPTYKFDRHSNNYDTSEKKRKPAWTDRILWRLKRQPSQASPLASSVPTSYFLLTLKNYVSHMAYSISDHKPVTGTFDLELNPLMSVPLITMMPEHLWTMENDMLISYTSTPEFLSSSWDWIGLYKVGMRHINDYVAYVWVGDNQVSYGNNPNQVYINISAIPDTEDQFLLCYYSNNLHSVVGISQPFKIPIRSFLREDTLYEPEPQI
Excerpt: (§1) The protein purification is described in detail elsewhere. Briefly, full-length human INPP5K (amino acids 1–448, UniProt ID: Q9BT40), rat INPP5K (aa 1–446, UniProt ID: Q9R0B6), mouse INPP5K (aa 1–468, UniProt ID: Q8C5L6), hamster INPP5K (aa 1–453, UniProt ID: G3HTF6), guinea pig INPP5K (aa 1–473, UniProt ID: H0V8T7) containing an N-terminal FLAG-tag, full-length human SHIP2 (aa 1–1 258) containing a C-terminal FLAG-tag, and full-length human PIPP (amino acids 1–1 006) containing an N-terminal His8-tag were all cloned into the pcDNA3.4 expression vector and transiently expressed in Expi293 cells (Thermo Fisher Scientific). The PH domain of human TAPP1 (amino acids 180–404) containing an N-terminal GST-tag was expressed in a pGEX6P1 expression vector (GE Healthcare) in E. coli strain BL21 ((Merck KGaA, Darmstadt, Germany)), following IPTG induction at 37 °C for 5 h. All the FLAG-tagged INPP5Ks and hSHIP2 were purified using affinity columns containing DDDDK-tagged protein purification gel (MBL, Medical & Biological Laboratories Co., Ltd., Tokyo, Japan), followed by size-exclusion chromatography with Superdex 200 columns (GE Healthcare). His8-tagged hPIPP was purified using Ni–NTA Superflow (Qiagen) and Superdex 200 columns. The GST-tagged hTAPP1 domain was purified using a Glutathione Sepharose 4B (GE Healthcare) and Superdex 200 columns. The purity of the protein obtained was evaluated using SDS-PAGE.
(§2) The release of inorganic phosphate was measured using a PiPer Phosphate Assay Kit (Thermo Fisher Scientific), according to the manufacturer’s instructions, but with some modifications. Enzyme reactions were performed in a final volume of 10 µL per well in a 384-well nonbinding black plates (Greiner Bio-One International, GmbH, Kremsmünster, Austria). The reaction mixtures containing 20 µM diC8-PI(3,4,5)P₃ and each enzyme (human INPP5K, mouse INPP5K, rat INPP5K, hamster INPP5K, guinea pig INPP5K, human SHIP2, or human PIPP) in reaction buffer (50 mM Tris–HCl pH 7.0, 150 mM NaCl, 7.5 mM MgCl₂, 0.03% Igepal CA-630, 0.03% gelatin), with or without various concentrations of inhibitor, were incubated for 20 min at room temperature. The reactions were then stopped and detection reactions were initiated by adding 5 µL of detection mix 1 (60 mM EDTA, 12 U/mL maltose phosphorylase, and 0.6 mM maltose in 100 mM Tris–HCl pH 8.0). After incubation for 60 min at room temperature, 5 µL of detection mix 2 (8 U/mL glucose oxidase, 0.8 U/mL HRP, and 100 µM Amplex Red in 100 mM Tris–HCl pH 8.0) was added, and the mixture was incubated for a further 30 min at room temperature in the dark. The fluorescence generated was measured using an Envision plate reader at 531/590 nm (excitation/emission), and the percentage inhibition was calculated as described above.

human PIPP = biological target: T2, human PIPP (Homo sapiens, UniProt Q15735); assay: as above; assay type: biochemical; settings: 20 µM diC8-PI(3,4,5)P3, 20 min
T2 construct: full-length human PIPP (amino acids 1–1 006) containing an N-terminal His8-tag; His8 (N); made in house; host or cells: Expi293 cells (pcDNA3.4, transient)
T2 sequence (Q15735 1-1006): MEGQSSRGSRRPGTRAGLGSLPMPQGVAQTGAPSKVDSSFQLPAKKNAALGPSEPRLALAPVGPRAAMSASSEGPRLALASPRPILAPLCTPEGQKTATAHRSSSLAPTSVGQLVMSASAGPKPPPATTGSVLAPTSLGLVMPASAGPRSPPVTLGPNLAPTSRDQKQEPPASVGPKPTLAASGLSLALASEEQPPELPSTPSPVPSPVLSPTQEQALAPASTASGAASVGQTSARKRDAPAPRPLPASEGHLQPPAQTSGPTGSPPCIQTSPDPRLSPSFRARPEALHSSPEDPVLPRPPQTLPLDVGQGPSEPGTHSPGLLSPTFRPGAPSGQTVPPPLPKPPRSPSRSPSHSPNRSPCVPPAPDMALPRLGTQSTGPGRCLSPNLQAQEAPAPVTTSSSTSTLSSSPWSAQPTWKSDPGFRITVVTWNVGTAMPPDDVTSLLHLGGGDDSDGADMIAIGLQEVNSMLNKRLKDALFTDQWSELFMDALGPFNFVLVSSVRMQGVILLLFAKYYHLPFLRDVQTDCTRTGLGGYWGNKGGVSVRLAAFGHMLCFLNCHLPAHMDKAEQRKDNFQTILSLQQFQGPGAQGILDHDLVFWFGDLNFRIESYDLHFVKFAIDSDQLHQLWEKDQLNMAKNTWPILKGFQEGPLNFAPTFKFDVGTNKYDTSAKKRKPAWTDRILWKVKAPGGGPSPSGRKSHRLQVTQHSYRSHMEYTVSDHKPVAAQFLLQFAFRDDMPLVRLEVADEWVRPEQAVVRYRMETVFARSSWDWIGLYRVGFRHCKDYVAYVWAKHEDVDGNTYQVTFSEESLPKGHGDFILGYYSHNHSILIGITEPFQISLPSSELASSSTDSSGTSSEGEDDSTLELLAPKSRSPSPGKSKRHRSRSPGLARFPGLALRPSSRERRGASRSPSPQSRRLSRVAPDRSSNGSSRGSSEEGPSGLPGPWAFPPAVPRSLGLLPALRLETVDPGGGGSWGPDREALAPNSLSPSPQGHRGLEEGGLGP
Excerpt: as §1, §2

Compound: CC(C)c1sc(NC(=O)c2ccccc2)c(C(=O)O)c1-c1ccccc1 [CPD-1]
- IC50 (mouse INPP5K; inorganic phosphate detection assay, 20 µM diC8-PI(3,4,5)P3, 20 min): > 100 µM
- inhibition of mouse INPP5K (in words) (mouse INPP5K; result in words): no inhibition; also recorded: inactive
- IC50 (human PIPP): > 100 µM

From PMC13047053, “Crystal structure of human INPP5K with an allosteric inhibitor reveals the structural basis for species specific potency” (Scientific Reports, 2026)
